{
  "source": "patent US20060160814A1",
  "about": "“Phosphodiesterase 10 inhibitors” (priority 2004, published 2006)",
  "note": "Where a name gives a salt, the structure may show the parent alone.",
  "data": [
    {"smiles": "COc1cc2nncc(C(C#N)C3=NC(C)(C)CN3C(C)C)c2cc1OC", "note": "(stereo not shown) (as salt: hydrochloride) [Compound 110, (4,5-Dihydro-4,4-dimethyl-1-isopropyl-1H-imidazol-2-yl) (6,7-dimethoxycinnolin-4-yl)-acetonitrile hydrochloride]", "values": [
      {"measurement": "melting point", "value": "210 to 212 °C (dec.)"}
    ]}
  ]
}
